Laboratory results reported in patent US9113629B2, “4-amino-6-(4-substituted-phenyl)-picolinates and 6-amino-2-(4-substituted-phenyl)-pyrimidine-4-carboxylates and their use as herbicides” (DOW AGROSCIENCES LLC, priority 2013, dated 2015).
Where two headings read alike, the source gives them in different places.

Tests used:
[1] = test system: KCHSC: kochia (Kochia scoparia); assay: Post-emergent Test III, herbicidal activity in wheat and barley; format: in vivo; conditions: for pest or weed control at 35 g/ha / pest or weed control at 70 g/ha / pest or weed control at 140 g/ha: Bassia scoparia, post-emergence, 504 h, read-out: Visual Growth Reduction (%) 21 Days After Application KCHSC; for pest or weed control at 35 g/ha: 35 g ai/ha; for pest or weed control at 70 g/ha: 70 g ai/ha; for GR50 KCHSC / GR80 KCHSC: probit analysis; for pest or weed control at 140 g/ha: 140 g ai/ha
Outline: (§1)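 Plants at the second to third true-leaf stage, grown in a greenhouse at about 18/17 °C with a 14 h photoperiod, were sprayed post-emergence at 187 L/ha with the high rate and ½× to 1/16× serial dilutions in an acetone/DMSO/crop-oil/surfactant carrier. Injury was rated visually at 21 d on a 0–100% scale, and GR20–GR90 were derived by probit analysis.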

[2] = test system: APESV: bentgrass (Apera spica-venti); assay: as above; format: in vivo; conditions: for pest or weed control at 35 g/ha / pest or weed control at 70 g/ha / pest or weed control at 140 g/ha: Apera spica-venti, post-emergence, 504 h, read-out: Visual Growth Reduction (%) 21 Days After Application APESV; for pest or weed control at 35 g/ha: 35 g ai/ha; for pest or weed control at 70 g/ha: 70 g ai/ha; for GR50 APESV / GR80 APESV: probit analysis; for pest or weed control at 140 g/ha: 140 g ai/ha
Outline: as §1

[3] = test system: HORSS: barley, including spring and winter (Hordeum vulgare); assay: as above; format: in vivo; conditions: 21 d; for pest or weed control at 35 g/ha / pest or weed control at 70 g/ha: Hordeum vulgare, post-emergence, 504 h, post-emergent, read-out: Visual Growth Reduction (%) 21 Days After Application HORSS; for pest or weed control at 35 g/ha: 35 g ai/ha; for pest or weed control at 70 g/ha: 70 g ai/ha; for GR20 HORSS: dose for 20 percent growth reduction, probit analysis
Outline: as §1

[4] = test system: SETVI: green foxtail (Setaria viridis); assay: as above; format: in vivo; conditions: Table 9, 21 d; for pest or weed control at 35 g/ha / pest or weed control at 70 g/ha: Setaria viridis, post-emergence, 504 h, post-emergent, read-out: Visual Growth Reduction (%) 21 Days After Application SETVI; for pest or weed control at 35 g/ha: 35 g ai/ha; for pest or weed control at 70 g/ha: 70 g ai/ha; for GR50 SETVI: dose for 50 percent growth reduction; for GR50 SETVI / GR80 SETVI: probit analysis; for GR80 SETVI: dose for 80 percent growth reduction
Outline: as §1

[5] = test system: TRZSS: wheat, including spring and winter (Triticum aestivum); assay: as above; format: in vivo; conditions: 21 d; for GR20 TRZSS: dose for 20 percent growth reduction, probit analysis; for pest or weed control at 35 g/ha / pest or weed control at 70 g/ha: Triticum aestivum, post-emergence, 504 h, post-emergent, read-out: Visual Growth Reduction (%) 21 Days After Application TRZSS; for pest or weed control at 35 g/ha: 35 g ai/ha; for pest or weed control at 70 g/ha: 70 g ai/ha
Outline: as §1

[6] = as above; format: in vivo, Lolium multiflorum, Lolium rigidum; conditions: Lolium multiflorum, post-emergence, 504 h, read-out: Visual Growth Reduction (%) 21 Days After Application LOLSS; for pest or weed control at 35 g/ha: 35 g ai/ha; for pest or weed control at 70 g/ha: 70 g ai/ha; for pest or weed control at 140 g/ha: 140 g ai/ha
Outline: as §1

[7] = test system: MATSS: scented mayweed (Matricaria chamomilla), pineappleweed (Matricaria matricarioides); assay: as above; format: in vivo; conditions: for pest or weed control at 35 g/ha / pest or weed control at 70 g/ha / pest or weed control at 140 g/ha: Matricaria chamomilla, post-emergence, 504 h, read-out: Visual Growth Reduction (%) 21 Days After Application MATSS; for pest or weed control at 35 g/ha: 35 g ai/ha; for pest or weed control at 70 g/ha: 70 g ai/ha; for pest or weed control at 140 g/ha: 140 g ai/ha; for GR50 MATSS / GR80 MATSS: probit analysis
Outline: as §1

[8] = test system: SASKR: Russian thistle (Salsola iberica); assay: as above; format: in vivo; conditions: Table 8, 21 d
Outline: as §1

[9] = test system: VIOSS: wild pansy (Viola tricolor), field violet (Viola arvensis); assay: as above; format: in vivo; conditions: Table 8, 21 d
Outline: as §1

[10] = test system: VERPE: bird's-eye speedwell (veronica persica); assay: as above; format: in vivo; conditions: Table 8, 21 d
Outline: as §1

[11] = Table 9, dose for 50 percent growth reduction, 21 d
[12] = Table 9, dose for 80 percent growth reduction, 21 d
[13] = dose for growth reduction of 50 percent, 21 days after application
[14] = dose for growth reduction of 80 percent, 21 days after application
[15] = dose for 50 percent growth reduction, probit analysis
[16] = dose for 80 percent growth reduction, probit analysis
[17] = Table 8, dose for 50 percent growth reduction, 21 d
[18] = Table 8, dose for 80 percent growth reduction, 21 d

Nc1cc(-c2ccc(Br)cc2)nc(C(=O)O)c1Cl [Compound 168]
pest or weed control at 35 g/ha ([1]; Table 9, post-emergent, 21 d): 95 to 100% | pest or weed control at 70 g/ha ([1]; Table 9, post-emergent, 21 d): 95 to 100% | GR50 KCHSC [1, 11]: 5 g ai/ha | GR80 KCHSC [1, 12]: 15 g ai/ha | pest or weed control at 35 g/ha ([2]; Table 9, post-emergent, 21 d): 75 to 84% | pest or weed control at 70 g/ha ([2]; Table 9, post-emergent, 21 d): 85 to 94% | GR50 APESV [2, 11]: 21 g ai/ha | GR80 APESV [2, 12]: 57 g ai/ha | pest or weed control at 35 g/ha ([3]; Table 9): 85 to 94% | pest or weed control at 70 g/ha ([3]; Table 9): 95 to 100% | GR20 HORSS ([3]; Table 9): 1 g ai/ha | pest or weed control at 35 g/ha [4]: 45 to 59% | pest or weed control at 70 g/ha [4]: 60 to 74% | GR50 SETVI [4]: 28 g ai/ha | GR80 SETVI [4]: 70 g ai/ha | GR20 TRZSS ([5]; Table 9): 1 g ai/ha | pest or weed control at 35 g/ha ([5]; Table 9): 85 to 94% | pest or weed control at 70 g/ha ([5]; Table 9): 95 to 100% | pest or weed control at 35 g/ha ([6]; Table 9, post-emergent, 21 d): 0 to 29% | pest or weed control at 70 g/ha ([6]; Table 9, post-emergent, 21 d): 45 to 59%

COC(=O)c1nc(-c2ccc(F)cc2)c(F)c(N)c1Cl [Compound 204]
pest or weed control at 35 g/ha [1]: 85 to 94% | pest or weed control at 70 g/ha [1]: 95 to 100% | pest or weed control at 140 g/ha [1]: 95 to 100% | GR50 KCHSC [1, 13]: 2 g ai/ha | GR80 KCHSC [1, 14]: 9 g ai/ha | pest or weed control at 35 g/ha [2]: 0 to 29% | pest or weed control at 70 g/ha [2]: 30 to 44% | pest or weed control at 140 g/ha [2]: 60 to 74% | GR50 APESV [2, 13]: 106 g ai/ha | GR80 APESV [2, 14]: >140 g ai/ha | pest or weed control at 35 g/ha [7]: 0 to 29% | pest or weed control at 70 g/ha [7]: 0 to 29% | pest or weed control at 140 g/ha [7]: 0 to 29% | GR50 MATSS [7, 13]: >140 g ai/ha | GR80 MATSS [7, 14]: >140 g ai/ha | pest or weed control at 35 g/ha [6]: 0 to 29% | pest or weed control at 70 g/ha [6]: 0 to 29% | pest or weed control at 140 g/ha [6]: 0 to 29%

C#Cc1ccc(-c2nc(N)c(OC)c(C(=O)O)n2)cc1 [Compound 28]
pest or weed control at 35 g/ha ([1]; Table 9, post-emergent, 21 d): 0 to 29% | pest or weed control at 70 g/ha ([1]; Table 9, post-emergent, 21 d): 30 to 44% | GR50 KCHSC [1, 11]: 88 g ai/ha | GR80 KCHSC [1, 12]: >140 g ai/ha | pest or weed control at 35 g/ha ([2]; Table 9, post-emergent, 21 d): 0 to 29% | pest or weed control at 70 g/ha ([2]; Table 9, post-emergent, 21 d): 0 to 29% | GR50 APESV [2, 11]: >140 g ai/ha | GR80 APESV [2, 12]: >140 g ai/ha | pest or weed control at 35 g/ha ([3]; Table 9): 0 to 29% | pest or weed control at 70 g/ha ([3]; Table 9): 30 to 44% | GR20 HORSS ([3]; Table 9): 43 g ai/ha | pest or weed control at 35 g/ha [4]: 0 to 29% | pest or weed control at 70 g/ha [4]: 0 to 29% | GR50 SETVI [4]: >140 g ai/ha | GR80 SETVI [4]: >140 g ai/ha | GR20 TRZSS ([5]; Table 9): 17 g ai/ha | pest or weed control at 35 g/ha ([5]; Table 9): 30 to 44% | pest or weed control at 70 g/ha ([5]; Table 9): 60 to 74% | pest or weed control at 35 g/ha ([6]; Table 9, post-emergent, 21 d): 0 to 29% | pest or weed control at 70 g/ha ([6]; Table 9, post-emergent, 21 d): 0 to 29%

COC(=O)c1nc(-c2ccc(F)c(F)c2F)c(F)c(N)c1Cl [Compound 186]
pest or weed control at 35 g/ha [1]: 60 to 74% | pest or weed control at 70 g/ha [1]: 60 to 74% | pest or weed control at 140 g/ha [1]: 60 to 74% | GR50 KCHSC [1, 13]: 1 g ai/ha | GR80 KCHSC [1, 14]: >140 g ai/ha | pest or weed control at 35 g/ha [2]: 0 to 29% | pest or weed control at 70 g/ha [2]: 0 to 29% | pest or weed control at 140 g/ha [2]: 0 to 29% | GR50 APESV [2, 13]: >140 g ai/ha | GR80 APESV [2, 14]: >140 g ai/ha | pest or weed control at 35 g/ha [7]: 0 to 29% | pest or weed control at 70 g/ha [7]: 0 to 29% | pest or weed control at 140 g/ha [7]: 0 to 29% | GR50 MATSS [7, 13]: >140 g ai/ha | GR80 MATSS [7, 14]: >140 g ai/ha | pest or weed control at 35 g/ha [6]: 0 to 29% | pest or weed control at 70 g/ha [6]: 0 to 29% | pest or weed control at 140 g/ha [6]: 0 to 29%

COc1c(N)nc(-c2ccc(Br)c(F)c2)nc1C(=O)O [Compound 113, 6-Amino-2-(4-bromo-3-fluorophenyl)-5-methoxypyrimidine-4-carboxylic acid]
pest or weed control at 35 g/ha ([8]; Salsola tragus, post-emergence, 504 h, 35 g ai/ha, post-emergent, read-out: Visual Growth Reduction (%) 21 Days After Application SASKR): 75 to 84% | pest or weed control at 70 g/ha ([8]; Salsola tragus, post-emergence, 504 h, 70 g ai/ha, post-emergent, read-out: Visual Growth Reduction (%) 21 Days After Application SASKR): 85 to 94% | GR50 SASKR [8, 15]: 5 g ai/ha | GR80 SASKR [8, 16]: 36 g ai/ha | GR50 VIOSS [9, 15]: 4 g ai/ha | GR80 VIOSS [9, 16]: 11 g ai/ha | pest or weed control at 35 g/ha ([9]; Viola tricolor, post-emergence, 504 h, 35 g ai/ha, post-emergent, read-out: Visual Growth Reduction (%) 21 Days After Application VIOSS): 95 to 100% | pest or weed control at 70 g/ha ([9]; Viola tricolor, post-emergence, 504 h, 70 g ai/ha, post-emergent, read-out: Visual Growth Reduction (%) 21 Days After Application VIOSS): 95 to 100% | pest or weed control at 35 g/ha ([1]; Table 8, post-emergent, 21 d): 95 to 100% | pest or weed control at 70 g/ha ([1]; Table 8, post-emergent, 21 d): 95 to 100% | GR50 KCHSC [1, 17]: 3 g ai/ha | GR80 KCHSC [1, 18]: 10 g ai/ha | pest or weed control at 35 g/ha ([3]; Table 8): 85 to 94% | pest or weed control at 70 g/ha ([3]; Table 8): 95 to 100% | GR20 HORSS ([3]; Table 8): 1 g ai/ha | GR20 TRZSS ([5]; Table 8): 1 g ai/ha | pest or weed control at 35 g/ha ([5]; Table 8): 85 to 94% | pest or weed control at 70 g/ha ([5]; Table 8): 85 to 94% | pest or weed control at 35 g/ha ([7]; Table 8, post-emergent, 21 d): 85 to 94% | pest or weed control at 70 g/ha ([7]; Table 8, post-emergent, 21 d): 95 to 100% | GR50 MATSS [7, 17]: 4 g ai/ha | GR80 MATSS [7, 18]: 15 g ai/ha | GR50 VERPE [10, 15]: 3 g ai/ha | GR80 VERPE [10, 16]: 18 g ai/ha | pest or weed control at 35 g/ha ([10]; Veronica persica, post-emergence, 504 h, 35 g ai/ha, post-emergent, read-out: Visual Growth Reduction (%) 21 Days After Application VERPE): 85 to 94% | pest or weed control at 70 g/ha ([10]; Veronica persica, post-emergence, 504 h, 70 g ai/ha, post-emergent, read-out: Visual Growth Reduction (%) 21 Days After Application VERPE): 85 to 94%
